Measured values as given in patent US8278322.
Read-outs that look alike come from different tables or passages of the source.

CCOC(=O)[C@@H]1C[C@@H]2CN1C(=O)[C@H](C(C)(C)C)NC(=O)OCCCC#Cc1ccc3ccnc(c3c1)O2
ring closure, yield of all isomers (from CCOC(=O)[C@@H]1C[C@@H](Oc2nccc3ccc(C#CCCCOC(=O)N[C@H](C(=O)O)C(C)(C)C)cc23)CN1C(=O)OC(C)(C)C, amide bond, HATU, DCM, 3.7 mM, 20.0 h, 2 steps): 14.5%

CCCC[C@@H]1NC(=O)OCCCC=Cc2ccc3ccnc(c3c2)O[C@@H]2C[C@@H](C(=O)OCC)N(C2)C1=O
ring closure, yield of all isomers (from C=CCCCOC(=O)N[C@@H](CCCC)C(=O)N1C[C@H](Oc2nccc3ccc(C=C)cc23)C[C@H]1C(=O)OCC, rcm bond, Zhan Catalyst I (RC-301), dichloro(5-chloro-2-isopropoxybenzylidene)(1,3-dimesitylimidazolidin-2-ylidene)ruthenium, 1,2-dichloroethane, 7.4 mM, 80.0 °C, 2.0 h): 63.5%

CCOC(=O)[C@@H]1C[C@@H]2CN1C(=O)[C@H](C1CCCC1)NC(=O)OCC(C)(C)C/C=C/c1ccc3ccnc(c3c1)O2
ring closure, yield of all isomers (from C=CCC(C)(C)COC(=O)N[C@H](C(=O)N1C[C@H](Oc2nccc3ccc(C=C)cc23)C[C@H]1C(=O)OCC)C1CCCC1, rcm bond, Zhan 1B, DCE, 2.88 mM, 70.0 °C, 3.0 h): 83%

C=C1CC(C)(C)COC(=O)N[C@@H](C2CCCCC2)C(=O)N2C[C@@H](C[C@H]2C(=O)OCC)Oc2nccc3cc(OC)c1cc23
ring closure, yield of all isomers (from C=CCC(C)(C)COC(=O)N[C@H](C(=O)N1C[C@H](Oc2nccc3cc(OC)c(Br)cc23)C[C@H]1C(=O)OCC)C1CCCCC1, cc_pd bond, PdCl2(dppf), ethanol, 66.4 mM, 90.0 °C, 19.0 h): 35.5%
